Consider eight compounds from US20260327264A1, “PEPTIDE INHIBITORS OF INTERLEUKIN-23 RECEPTOR” (Zealand Pharma A/S, priority 2023, published 2026).

Read-outs that look alike come from different tables or passages of the source. *1 amine or outer side, *2 acyl side, *3 side chain or, on linkers, in order; H or OH if unused. Where a SMILES comes first, the peptide text is derived from it. Bridges are numbered along the chain shown (N, C = ends). [ ]: non-standard residue; d: D form. 2Nal = N[C@@H](Cc1ccc2ccccc2c1)C(=O)O; AEF = NCCOc1ccc(C[C@H](N)C(=O)O)cc1; X1 = O=C(Cc1ccc(CN[*:1])cc1)[*:2]; 3Pal = N[C@@H](Cc1cccnc1)C(=O)O; αMeL = CC(C)C[C@](C)(N)C(=O)O; Dab = NCC[C@H](N)C(=O)O

For orientation: IC50 means the concentration that inhibits the measured activity by half.

The target of one data set is T1, human IL-23R (Homo sapiens, UniProt Q5VWK5).
T1 construct: Nanoluc luciferase (Nluc); secretion signal encoded by the plasmid (not specified); expressed in transfected cells; crude membranes used in the assay
T1 sequence (Q5VWK5 22-629): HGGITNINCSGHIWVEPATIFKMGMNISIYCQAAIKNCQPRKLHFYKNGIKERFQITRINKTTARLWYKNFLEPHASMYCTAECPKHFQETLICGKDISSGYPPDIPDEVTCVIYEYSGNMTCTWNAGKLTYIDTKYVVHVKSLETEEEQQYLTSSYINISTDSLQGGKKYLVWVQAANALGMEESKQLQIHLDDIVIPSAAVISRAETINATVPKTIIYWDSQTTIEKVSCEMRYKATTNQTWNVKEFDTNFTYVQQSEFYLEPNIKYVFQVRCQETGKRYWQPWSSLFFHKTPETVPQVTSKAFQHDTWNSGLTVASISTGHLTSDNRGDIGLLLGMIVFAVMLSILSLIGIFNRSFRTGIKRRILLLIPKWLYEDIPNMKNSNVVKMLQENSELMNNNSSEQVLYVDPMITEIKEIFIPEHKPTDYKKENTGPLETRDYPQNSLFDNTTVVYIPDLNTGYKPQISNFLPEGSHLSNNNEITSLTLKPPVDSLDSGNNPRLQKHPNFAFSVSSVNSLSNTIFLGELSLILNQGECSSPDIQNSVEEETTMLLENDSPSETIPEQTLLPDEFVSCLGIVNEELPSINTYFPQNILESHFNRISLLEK
As to the kind of experiment: Binding assay: displacement of fluorophore (TAMRA)-labelled reference compound from human IL-23R (BRET, Nluc-IL23R fusion protein membranes). The note with it: for Emax: read-out: % displacement (hIL-23R binding). (In general: Bioluminescence resonance energy transfer reports proximity on the nanometre scale.)

Data set [1] can be described thus: Peptide stability in simulated gastric fluid (SGF). The format is in vitro ADME. The conditions noted are these: pig, pH 1.2, pepsin, 37° C. The procedure:
(§1) SGF and SIF were prepared based on the United States Pharmacopeia specifications (Test Solutions, United States Pharmacopeia 35, NF 30, 2012). SGF was prepared by dissolving sodium chloride (0.2 g) in 50 mL of water. A volume of 0.7 mL of 10 M HCl was added to adjust the pH of the solution to 1.2 and the volume made up to 100 mL with water. 64 mg porcine pepsin (P7125, Sigma Aldrich) was gently dissolved into 20 mL preheated (37° C.) solution (3.2 g/L) immediately prior to the incubation. SIF was prepared by dissolving monobasic potassium phosphate (0.68 g) in 50 mL of water and adjusting the pH to 6.8 with 1 M NaOH. The volume was subsequently made up to 100 mL with water. 200 mg porcine pancreatin (P1625, Sigma Aldrich) was gently dissolved into 20 mL preheated (37° C.) solution (10 g/L) immediately prior to the incubation.
(§2) To initiate the incubations, 20 μL of peptide stock solution in 50% v/v isopropanol was deposited at the bottom of a well plate and 580 μL matrix solution was added to give a final substrate concentration of 10 μM. The incubation was performed at 37° C. with gentle shaking. 70 μL aliquots were removed at 0, 1 and 4 hours and quenched into 210 μL ice-cold precipitant solution (95% v/v acetonitrile with 0.1% v/v formic acid). After the last timepoint, the sampling plate was mixed for 10 min on a shaking table and centrifuged 10 min at 2200 g. 70 μL resulting supernatant was diluted with 150 μL water, mixed and centrifugated before analysis by liquid chromatography high resolution mass spectrometry. The zero sample was reinjected after the 4-hour sample to confirm that no drift in instrument sensitivity had occurred during the run. Percent remaining at each timepoint was calculated relative to timepoint zero based on absolute peak areas.
Compounds with a SGF stability (after 4 h) above 70% are considered highly SGF stable. Compounds with a SGF stability (after 4 h) between 30-70% (including 30% and 70%) are considered moderately SGF stable. Compounds with a SGF stability (after 4 h) below 30% are considered SGF unstable. SGF stability values above 100% are due to assay uncertainty and indicate the compound has not degraded.

The test system of data set [2] is IL-23 mediated STAT3 signalling (DB cells). As to the kind of experiment: Functional inhibition of IL-23 mediated STAT3 signalling (phospho-STAT3 Tyr705) in DB cells. It is filed as cell-based, human. The note with it: for hIL-23 (pSTAT3) antagonist % inhibition: Table 3-2, maximal inhibitory response, EC80 of hIL-23. The gist of the method:
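Phospho-STAT3 in lysed DB cells quantified by MSD kit after 90 min exposure to EC80 human IL-23, following 15 min compound pretreatment (37° C, 5% CO2). IC50 and maximal inhibition derived from curves normalized between IL-23-only and buffer-only controls.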

A short description of data set [3]: Peptide stability in simulated intestinal fluid (SIF). It is filed as in vitro ADME. The conditions noted are these: pig, simulated intestinal fluid, SIF, pH 6.8, pancreatin, 37° C., 10 μM. As for the experimental part: as §1, §2
Compounds with a SIF stability (after 4 h) above 70% are considered highly SIF stable. Compounds with a SIF stability (after 4 h) between 30-70% (including 30% and 70%) are considered moderately SIF stable. Compounds with a SIF stability (after 4 h) below 30% are considered SIF unstable. SIF stability values above 100% are due to assay uncertainty and indicate the compound has not degraded.

Where [4] appears, read: EC80 of hIL-23, read-out: IC50 (pSTAT3).
Setting [5] is: Table 3-2, EC80 of hIL-23, read-out: hIL-23 (pSTAT3) antagonist IC50.

Regarding `CNC(=O)[C@H](Cc1cccnc1)NC(=O)[C@H](Cc1c[nH]cn1)NC(=O)[C@@H]1CCC(=O)NCc2ccc(cc2)CC(=O)N[C@@H](CO)C(=O)N[C@H]2CCC(=O)NCC[C@H](NC(=O)[C@H](CCC(N)=O)NC(=O)[C@H](Cc3c[nH]c4ccccc34)NC2=O)C(=O)N[C@@H](Cc2ccc(OCCN)cc2)C(=O)N[C@@H](Cc2ccc3ccccc3c2)C(=O)N[C@@](C)(CC(C)C)C(=O)N1` [Compound 34, [4-Aminomethyl-phenylacetyl](1c)*SE(2c)WQ[Dab](2c)[Y(2-aminoethoxy)][2-Nal][2-Me-Leu]E(1c)H[3-(3-Pyridyl)-Ala]-[NHMe]] ([X1]SEWQ[Dab][AEF][2Nal][αMeL]EH[3Pal]-NHMe; lactam 3-6, N-10), on human IL-23R, the Emax was 90%. Further, the fraction remaining at 4 h, 10 µM in data set [1] is 95%. Also, the “hIL-23 (pSTAT3) antagonist % inhibition” value in data set [2] is given as 102%.

Regarding `CC(C)C[C@]1(C)NC(=O)[C@H](Cc2ccc3ccccc3c2)NC(=O)[C@H](Cc2ccc(OCCN)cc2)NC(=O)[C@@H]2CCNC(=O)CC[C@H](NC(=O)[C@H](CO)NC(=O)Cc3ccc(cc3)CNC(=O)CC[C@@H](C(=O)N[C@@H](CCN)C(=O)N[C@@](C)(Cc3cccnc3)C(N)=O)NC1=O)C(=O)N[C@@H](Cc1c[nH]c3ccccc13)C(=O)N[C@@H](CCC(N)=O)C(=O)N2` [Compound 3, [4-Aminomethyl-phenylacetyl](1c)*SE(2c)WQ[Dab](2c)[Y(2-aminoethoxy)][2-Nal][2-Me-Leu]E(1c)[Dab][2-Me-3-(3-Pyridyl)-Ala]-[NH2]], at human IL-23R, the Emax came out at 99%. In data set [1], the amount remaining at 4 h, 10 µM was 104%. The half-maximal inhibitory concentration (IC50) in data set [2] (setting [4]) and in data set [2] (setting [5]) was 1.7 nM in each case. Also, the “hIL-23 (pSTAT3) antagonist % inhibition” value in data set [2] is reported as 98%.

Consider `CC(C)C[C@]1(C)NC(=O)[C@H](Cc2ccc3ccccc3c2)NC(=O)[C@H](Cc2ccc(OCCN)cc2)NC(=O)[C@@H]2CCNC(=O)CC[C@H](NC(=O)[C@H](CO)NC(=O)Cc3ccc(cc3)CNC(=O)CC[C@@H](C(=O)N[C@@H](CCN)C(=O)N[C@@H](Cc3c[nH]cn3)C(=O)N[C@@H](Cc3cccnc3)C(N)=O)NC1=O)C(=O)N[C@@H](Cc1c[nH]c3ccccc13)C(=O)N[C@@H](CCC(N)=O)C(=O)N2` [Compound 12, [4-Aminomethyl-phenylacetyl](1c)*SE(2c)WQ[Dab](2c)[Y(2-aminoethoxy)][2-Nal][2-Me-Leu]E(1c)[Dab]H[3-(3-Pyridyl)-Ala]-[NH2]] ([X1]SEWQ[Dab][AEF][2Nal][αMeL]E[Dab]H[3Pal]-NH2; lactam 3-6, N-10), for which the Emax on human IL-23R worked out at 104%. For the same compound, the fraction remaining at 1 h, 10 µM in data set [1] (1 h) was 94%. Moreover, in data set [2] (setting [5]), the IC50 is 3.5 nM. In data set [2], the “hIL-23 (pSTAT3) antagonist % inhibition” value stood at 100%.

Take `CNC(=O)[C@H](Cc1cccnc1)NC(=O)[C@H](CCN)NC(=O)[C@@H]1CCC(=O)NCc2ccc(cc2)CC(=O)N[C@@H](C)C(=O)N[C@H]2CCC(=O)NCC[C@H](NC(=O)[C@H](CCC(N)=O)NC(=O)[C@H](Cc3c[nH]c4ccccc34)NC2=O)C(=O)N[C@@H](CCc2ccccc2)C(=O)N[C@@H](Cc2ccc3ccccc3c2)C(=O)NC(C)(C)C(=O)N1` [Compound 41, [4-Aminomethyl-phenylacetyl](1c)*AE(2c)WQ[Dab](2c)[hPhe][2-Nal][Aib]E(1c)[Dab][3-(3-Pyridyl)-Ala]-[NHMe]]: on human IL-23R, the Emax is 104%. Moreover, the fraction remaining at 4 h, 10 µM in data set [1] was 102%.

In the case of `CNC(=O)[C@H](Cc1cccnc1)NC(=O)[C@H](CCN)NC(=O)[C@@H]1CCC(=O)NCc2ccc(cc2)CC(=O)N[C@@H](C)C(=O)N[C@H]2CCC(=O)NCC[C@H](NC(=O)[C@H](CCC(N)=O)NC(=O)[C@H](Cc3c[nH]c4ccccc34)NC2=O)C(=O)N[C@@H](Cc2ccc(OCCN)cc2)C(=O)N[C@@H](Cc2c[nH]c3ncccc23)C(=O)NC(C)(C)C(=O)N1` [Compound 44, [4-Aminomethyl-phenylacetyl](1c)*AE(2c)WQ[Dab](2c)[Y(2-aminoethoxy)][7-AzaTrp][Aib]E(1c)[Dab][3-(3-Pyridyl)-Ala]-[NHMe]], the share remaining at 1 h, 10 µM in data set [3] (1 h) was 78%. For the same compound, the share remaining at 4 h, 10 µM in data set [3] (4 h, read-out: SIF (% remaining 4 h)) is 91%.

For the compound `CNC(=O)[C@H](Cc1cccnc1)NC(=O)[C@H](COC)NC(=O)[C@@H]1CCC(=O)NCc2ccc(cc2)CC(=O)N[C@@H](CO)C(=O)N[C@H]2CCC(=O)NCC[C@H](NC(=O)[C@H](CCC(N)=O)NC(=O)[C@H](Cc3c[nH]c4ccccc34)NC2=O)C(=O)N[C@@H](Cc2ccc(OCCN)cc2)C(=O)N[C@@H](Cc2ccc3ccccc3c2)C(=O)N[C@@](C)(CC(C)C)C(=O)N1` [Compound 37, [4-Aminomethyl-phenylacetyl](1c)*SE(2c)WQ[Dab](2c)[Y(2-aminoethoxy)][2-Nal][2-Me-Leu]E(1c)[Ser(OMe)][3-(3-Pyridyl)-Ala]-[NHMe]], the Emax at human IL-23R turned out to be 95%. Also, the share remaining at 4 h, 10 µM in data set [1] is 102%. For the same compound, the half-maximal inhibitory concentration (IC50) in data set [2] (setting [5]) is 0.069 nM. Also, the “hIL-23 (pSTAT3) antagonist % inhibition” value in data set [2] turned out to be 100%.

Consider `CC(C)C[C@]1(C)NC(=O)[C@H](Cc2ccc3ccccc3c2)NC(=O)[C@H](Cc2ccc(OCCN)cc2)NC(=O)[C@@H]2CCNC(=O)CC[C@H](NC(=O)[C@H](CO)NC(=O)Cc3ccc(cc3)CNC(=O)CC[C@@H](C(=O)N[C@@H](CCN)C(=O)N(C)[C@@H](Cc3cccnc3)C(N)=O)NC1=O)C(=O)N[C@@H](Cc1c[nH]c3ccccc13)C(=O)N[C@@H](CCC(N)=O)C(=O)N2` [Compound 4, [4-Aminomethyl-phenylacetyl](1c)*SE(2c)WQ[Dab](2c)[Y(2-aminoethoxy)][2-Nal][2-Me-Leu]E(1c)[Dab][N—Me-3-(3-Pyridyl)-Ala]-[NH2]], for which the results for the IC50 (at human IL-23R; in data set [2] (setting [4]); in data set [2] (setting [5])) were 0.17 nM, 6.5 nM and 6.5 nM, respectively. Further, the Emax on human IL-23R was 111%. Besides, the fraction remaining at 4 h, 10 µM in data set [1] was 103%. Also, in data set [2], the “hIL-23 (pSTAT3) antagonist % inhibition” value was 100%.

For `CC(C)C[C@]1(C)NC(=O)[C@H](Cc2ccc3ccccc3c2)NC(=O)[C@H](Cc2ccc(OCCN)cc2)NC(=O)[C@@H]2CCNC(=O)CC[C@H](NC(=O)[C@H](CO)NC(=O)Cc3ccc(cc3)CNC(=O)CC[C@@H](C(=O)N[C@@H](CCN)C(N)=O)NC1=O)C(=O)N[C@@H](Cc1c[nH]c3ccccc13)C(=O)N[C@@H](CCC(N)=O)C(=O)N2` [Ref 125, [4-Aminomethyl-phenylacetyl](1c)*SE(2c)WQ[Dab](2c)[Y(2-aminoethoxy)][2-Nal][2-Me-Leu]E(1c)[Dab]-[NH2], reference compound], the Emax on human IL-23R stood at 101%. Further, the IC50 in data set [2] (setting [5]) worked out at 21 nM. Besides, the “hIL-23 (pSTAT3) antagonist % inhibition” value in data set [2] was found to be 98%.
